Test results reported in ChEMBL document CHEMBL1136790, “Identification of 1-arylmethyl-3- (2-aminoethyl)-5-aryluracil as novel gonadotropin-releasing hormone receptor antagonists” (J Med Chem, 2003).

Molecular target: T1, Gonadotropin-releasing hormone receptor (Homo sapiens, UniProt P30968)
T1 sequence (P30968 whole entry): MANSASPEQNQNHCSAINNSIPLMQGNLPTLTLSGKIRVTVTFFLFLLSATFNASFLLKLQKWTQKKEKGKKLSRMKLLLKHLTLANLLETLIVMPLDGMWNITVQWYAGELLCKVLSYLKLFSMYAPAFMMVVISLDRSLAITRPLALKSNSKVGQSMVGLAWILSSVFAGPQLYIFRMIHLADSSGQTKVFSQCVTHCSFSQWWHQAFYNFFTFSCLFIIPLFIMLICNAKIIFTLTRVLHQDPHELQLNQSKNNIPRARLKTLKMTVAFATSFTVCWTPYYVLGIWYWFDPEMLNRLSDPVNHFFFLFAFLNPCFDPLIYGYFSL
Experiment: Binding affinity was determined towards human Gonadotropin-releasing hormone receptor

Row | Ki [nM] | Compound
1 | 240 | COc1cccc(-c2c(C)n(Cc3c(F)cccc3F)c(=O)n(CCNCc3ccccc3)c2=O)c1

Molecular target: T1, Gonadotropin-releasing hormone receptor
Experiment: Binding affinity was determined towards human gonadotropin-releasing hormone receptor

Row | Compound | Ki [nM]
2 | Cc1c(-c2ccc3c(c2)OCCO3)c(=O)n(CCN(C)CCc2ccccn2)c(=O)n1Cc1c(F)cccc1F | 24
3 | COc1cccc(-c2cn(Cc3c(F)cccc3F)c(=O)n(CCN(C)CCc3ccccn3)c2=O)c1 | 1700
4 | COc1cccc(-c2c(C)n(Cc3c(F)cccc3F)c(=O)n(CCN3CCCC3c3ccccn3)c2=O)c1 (stereo unspecified) | 530
5 | Cc1c(-c2ccc(Oc3ccccc3)cc2)c(=O)n(CCN(C)CCc2ccccn2)c(=O)n1Cc1c(F)cccc1F | 30
6 | Cc1c(-c2cccc(O)c2)c(=O)n(CCN(C)CCc2ccccn2)c(=O)n1Cc1c(F)cccc1F | 480
7 | COc1cccc(-c2c(C)n(Cc3c(F)cccc3F)c(=O)n(CCNCCc3c[nH]cn3)c2=O)c1 | 3800
8 | COc1cccc(-c2c(C)n(Cc3c(F)cccc3F)c(=O)n(CCN3CCC[C@@H]3Cc3ccccn3)c2=O)c1 | 4800
9 | COc1cccc(-c2c(C)n(Cc3c(F)cccc3F)c(=O)n(CCNCCc3ccccc3)c2=O)c1 | 1100
10 | Cc1c(-c2cccc(OC(F)(F)F)c2)c(=O)n(CCN(C)CCc2ccccn2)c(=O)n1Cc1c(F)cccc1F | 4800

The remaining lines, values ahead:

Row | Ki [nM] | Compound
11 | 400 | Cc1c(-c2ccccc2)c(=O)n(CCN(C)CCc2ccccn2)c(=O)n1Cc1c(F)cccc1F
12 | 38 | Cc1c(-c2ccc3c(c2)OCO3)c(=O)n(CCN(C)CCc2ccccn2)c(=O)n1Cc1c(F)cccc1F
13 | 230 | COc1ccc(-c2c(C)n(Cc3c(F)cccc3F)c(=O)n(CCN(C)CCc3ccccn3)c2=O)cc1
14 | 130 | COc1cccc(-c2c(C)n(Cc3c(F)cccc3F)c(=O)n(CCN3CCC[C@H]3Cc3ccccn3)c2=O)c1
15 | 2200 | CCc1c(-c2cccc(OC)c2)c(=O)n(CCN(C)CCc2ccccn2)c(=O)n1Cc1c(F)cccc1F
16 | 220 | CCc1cccc(-c2c(C)n(Cc3c(F)cccc3F)c(=O)n(CCN(C)CCc3ccccn3)c2=O)c1
